Active and inactive are the calls of the source. No cut-off for these calls is given here.
Target: T1, Poly [ADP-ribose] polymerase 1 (Homo sapiens, UniProt P09874)
Experiment: Inhibition of human PARP1 using NAD+ as substrate at 5 nM incubated for 1 hr by ELISA relative to control
Conditions: not given

T1 sequence (P09874 whole entry): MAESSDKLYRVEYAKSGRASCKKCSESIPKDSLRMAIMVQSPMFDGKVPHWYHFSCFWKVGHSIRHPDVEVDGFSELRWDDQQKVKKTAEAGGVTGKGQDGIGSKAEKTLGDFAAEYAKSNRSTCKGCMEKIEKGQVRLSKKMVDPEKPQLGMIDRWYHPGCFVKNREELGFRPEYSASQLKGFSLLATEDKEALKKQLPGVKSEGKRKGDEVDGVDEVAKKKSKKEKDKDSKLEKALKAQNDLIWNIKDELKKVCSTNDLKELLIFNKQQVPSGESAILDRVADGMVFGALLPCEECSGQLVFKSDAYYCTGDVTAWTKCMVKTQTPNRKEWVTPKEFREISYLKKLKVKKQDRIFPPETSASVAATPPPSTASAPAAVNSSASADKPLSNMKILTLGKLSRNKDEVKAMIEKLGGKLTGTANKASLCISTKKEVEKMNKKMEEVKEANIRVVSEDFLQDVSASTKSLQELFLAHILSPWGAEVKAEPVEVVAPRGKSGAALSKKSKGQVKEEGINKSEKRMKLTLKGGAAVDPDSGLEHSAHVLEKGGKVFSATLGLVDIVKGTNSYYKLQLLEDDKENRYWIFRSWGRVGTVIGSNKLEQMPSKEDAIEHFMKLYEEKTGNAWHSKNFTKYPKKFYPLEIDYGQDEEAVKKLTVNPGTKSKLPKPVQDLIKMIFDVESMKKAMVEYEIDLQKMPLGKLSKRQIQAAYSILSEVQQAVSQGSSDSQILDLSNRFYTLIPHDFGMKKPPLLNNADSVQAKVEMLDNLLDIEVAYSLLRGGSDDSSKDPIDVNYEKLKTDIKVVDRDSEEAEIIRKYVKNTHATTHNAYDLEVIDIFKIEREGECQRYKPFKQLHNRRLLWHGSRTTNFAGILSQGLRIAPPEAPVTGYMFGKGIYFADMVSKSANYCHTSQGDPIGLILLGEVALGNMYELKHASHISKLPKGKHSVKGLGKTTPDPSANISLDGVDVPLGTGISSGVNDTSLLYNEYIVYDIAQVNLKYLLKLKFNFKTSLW

SMILES	inhibition
CCOC(=O)C1CCCN(Cc2ccc(-c3[nH]c4cc(F)cc5c4c3CCNC5=O)cc2)C1 (centres undefined)	86.5%
CC(C)(C)c1ccc(-c2[nH]c3cc(F)cc4c3c2CCNC4=O)cc1	56.2%
O=C1NCCc2c(-c3ccc(N4CCNCC4)cc3)[nH]c3cc(F)cc1c23	83.9%
N#Cc1ccc(-c2[nH]c3cc(F)cc4c3c2CCNC4=O)cc1	94.1%
O=C1NCCc2c(-c3ccc(CN4CCC(F)(F)CC4)cc3)[nH]c3cc(F)cc1c23	68.8%
O=C1NCCc2c(-c3ccc(CN4CCN(C(=O)C5CC5)CC4)cc3)[nH]c3cc(F)cc1c23	85%
O=C1NCCc2c(-c3ccc([N+](=O)[O-])cc3)[nH]c3cc(F)cc1c23	88.7%
CC1(NC(=O)OC(C)(C)C)CCN(Cc2ccc(-c3[nH]c4cc(F)cc5c4c3CCNC5=O)cc2)CC1	87%
CC1(N)CCN(Cc2ccc(-c3[nH]c4cc(F)cc5c4c3CCNC5=O)cc2)CC1	89.9%
O=C1NCCc2c(-c3ccc(CN4CCN(C(c5ccccc5)c5ccccc5)CC4)cc3)[nH]c3cc(F)cc1c23	26.5%
CC(C)(C)OC(=O)NC1CCCN(Cc2ccc(-c3[nH]c4cc(F)cc5c4c3CCNC5=O)cc2)C1 (centres undefined)	90.1%
O=C1NCCc2c(-c3ccc(CN4CCN(c5ncccn5)CC4)cc3)[nH]c3cc(F)cc1c23	93.7%
O=C(O)c1ccc(-c2[nH]c3cc(F)cc4c3c2CCNC4=O)cc1	43.2%
O=C1NCCc2c(-c3ccc(CN4CCn5c(nnc5C(F)(F)F)C4)cc3)[nH]c3cc(F)cc1c23	69.1%
O=C1NCCc2c(-c3ccc(CN4CCN(c5cccc(C(F)(F)F)c5)CC4)cc3)[nH]c3cc(F)cc1c23	22.1%
COc1ccc(-c2[nH]c3cc(F)cc4c3c2CCNC4=O)cc1	82.8%
Nc1ccc(-c2[nH]c3cc(F)cc4c3c2CCNC4=O)cc1	84.5%
CC(C)(C)OC(=O)NC1CCN(Cc2ccc(-c3[nH]c4cc(F)cc5c4c3CCNC5=O)cc2)CC1	82%

Further lines, results first:

inhibition	SMILES
85.8%	NC1CCN(Cc2cccc(-c3[nH]c4cc(F)cc5c4c3CCNC5=O)c2)CC1
16.3%	C[C@@H]1CN(Cc2cccc(-c3[nH]c4cc(F)cc5c4c3CCNC5=O)c2)CCN1C(=O)OC(C)(C)C
55.6%	CC(C)(C)OC(=O)NC1CCCN(Cc2cccc(-c3[nH]c4cc(F)cc5c4c3CCNC5=O)c2)C1 (centres undefined)
44.9%	O=C(O)c1cccc(-c2[nH]c3cc(F)cc4c3c2CCNC4=O)c1
61.2%	CN1CCN(Cc2cccc(-c3[nH]c4cc(F)cc5c4c3CCNC5=O)c2)CC1
48.4%	O=C1NCCc2c(-c3cccc(CN4CCn5c(nnc5C(F)(F)F)C4)c3)[nH]c3cc(F)cc1c23
38.4%	O=C1NCCc2c(-c3cccc(CN4CCC(F)(F)CC4)c3)[nH]c3cc(F)cc1c23
76.3%	Nc1cccc(-c2[nH]c3cc(F)cc4c3c2CCNC4=O)c1
78.3%	C[C@@H]1CN(Cc2cccc(-c3[nH]c4cc(F)cc5c4c3CCNC5=O)c2)CCN1

Target: T2, Poly [ADP-ribose] polymerase 2 (Homo sapiens, UniProt Q9UGN5)
T2 sequence (Q9UGN5 whole entry): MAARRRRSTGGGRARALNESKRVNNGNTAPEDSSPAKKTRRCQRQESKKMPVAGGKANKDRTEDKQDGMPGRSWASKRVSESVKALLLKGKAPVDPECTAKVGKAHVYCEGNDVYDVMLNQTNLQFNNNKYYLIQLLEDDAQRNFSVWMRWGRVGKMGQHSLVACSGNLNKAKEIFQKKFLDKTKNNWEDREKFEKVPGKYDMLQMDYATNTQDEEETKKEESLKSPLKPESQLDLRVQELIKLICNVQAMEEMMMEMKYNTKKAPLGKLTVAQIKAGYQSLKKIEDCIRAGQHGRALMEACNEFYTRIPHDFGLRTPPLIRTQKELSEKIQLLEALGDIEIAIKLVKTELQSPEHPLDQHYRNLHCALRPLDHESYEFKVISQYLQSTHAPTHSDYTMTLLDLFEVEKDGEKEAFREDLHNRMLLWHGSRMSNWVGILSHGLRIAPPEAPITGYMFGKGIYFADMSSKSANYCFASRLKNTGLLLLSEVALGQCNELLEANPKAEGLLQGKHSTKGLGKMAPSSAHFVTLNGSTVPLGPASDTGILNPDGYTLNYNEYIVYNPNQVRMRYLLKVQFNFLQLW
Experiment: Inhibition of human PARP2 using NAD+ as substrate at 5 nM incubated for 1 hr by ELISA relative to control
Conditions: not given

SMILES	inhibition
CCOC(=O)C1CCCN(Cc2ccc(-c3[nH]c4cc(F)cc5c4c3CCNC5=O)cc2)C1 (centres undefined)	36.3%
CC(C)(C)c1ccc(-c2[nH]c3cc(F)cc4c3c2CCNC4=O)cc1	42.3%
O=C1NCCc2c(-c3ccc(N4CCNCC4)cc3)[nH]c3cc(F)cc1c23	55.8%
N#Cc1ccc(-c2[nH]c3cc(F)cc4c3c2CCNC4=O)cc1	53.4%
O=C1NCCc2c(-c3ccc(CN4CCC(F)(F)CC4)cc3)[nH]c3cc(F)cc1c23	18%
O=C1NCCc2c(-c3ccc(CN4CCN(C(=O)C5CC5)CC4)cc3)[nH]c3cc(F)cc1c23	44.1%
O=C1NCCc2c(-c3ccc([N+](=O)[O-])cc3)[nH]c3cc(F)cc1c23	55.5%
CC1(NC(=O)OC(C)(C)C)CCN(Cc2ccc(-c3[nH]c4cc(F)cc5c4c3CCNC5=O)cc2)CC1	40.5%
CC1(N)CCN(Cc2ccc(-c3[nH]c4cc(F)cc5c4c3CCNC5=O)cc2)CC1	45.2%
O=C1NCCc2c(-c3ccc(CN4CCN(C(c5ccccc5)c5ccccc5)CC4)cc3)[nH]c3cc(F)cc1c23	36.8%
CC(C)(C)OC(=O)NC1CCCN(Cc2ccc(-c3[nH]c4cc(F)cc5c4c3CCNC5=O)cc2)C1 (centres undefined)	34.8%
O=C1NCCc2c(-c3ccc(CN4CCN(c5ncccn5)CC4)cc3)[nH]c3cc(F)cc1c23	47%
O=C(O)c1ccc(-c2[nH]c3cc(F)cc4c3c2CCNC4=O)cc1	48.1%
O=C1NCCc2c(-c3ccc(CN4CCn5c(nnc5C(F)(F)F)C4)cc3)[nH]c3cc(F)cc1c23	23.5%
O=C1NCCc2c(-c3ccc(CN4CCN(c5cccc(C(F)(F)F)c5)CC4)cc3)[nH]c3cc(F)cc1c23	17.3%
COc1ccc(-c2[nH]c3cc(F)cc4c3c2CCNC4=O)cc1	49.4%
Nc1ccc(-c2[nH]c3cc(F)cc4c3c2CCNC4=O)cc1	46%
CC(C)(C)OC(=O)NC1CCN(Cc2ccc(-c3[nH]c4cc(F)cc5c4c3CCNC5=O)cc2)CC1	42.4%

The remaining lines, values ahead:

inhibition	SMILES
15.3%	NC1CCN(Cc2cccc(-c3[nH]c4cc(F)cc5c4c3CCNC5=O)c2)CC1
49.4%	C[C@@H]1CN(Cc2cccc(-c3[nH]c4cc(F)cc5c4c3CCNC5=O)c2)CCN1C(=O)OC(C)(C)C
43.2%	CC(C)(C)OC(=O)NC1CCCN(Cc2cccc(-c3[nH]c4cc(F)cc5c4c3CCNC5=O)c2)C1 (centres undefined)
43.3%	O=C(O)c1cccc(-c2[nH]c3cc(F)cc4c3c2CCNC4=O)c1
29%	CN1CCN(Cc2cccc(-c3[nH]c4cc(F)cc5c4c3CCNC5=O)c2)CC1
24.4%	O=C1NCCc2c(-c3cccc(CN4CCn5c(nnc5C(F)(F)F)C4)c3)[nH]c3cc(F)cc1c23
24.3%	O=C1NCCc2c(-c3cccc(CN4CCC(F)(F)CC4)c3)[nH]c3cc(F)cc1c23
58.9%	Nc1cccc(-c2[nH]c3cc(F)cc4c3c2CCNC4=O)c1
50.2%	C[C@@H]1CN(Cc2cccc(-c3[nH]c4cc(F)cc5c4c3CCNC5=O)c2)CCN1

Target: T1, Poly [ADP-ribose] polymerase 1
Experiment: Inhibition of human PARP1 using NAD+ as substrate incubated for 1 hr by ELISA
Conditions: not given

IC50	SMILES
0.96 nM	NC1CCN(Cc2cccc(-c3[nH]c4cc(F)cc5c4c3CCNC5=O)c2)CC1
1.19 nM	O=C1NCCc2c(-c3ccc(CN4CCN(c5ncccn5)CC4)cc3)[nH]c3cc(F)cc1c23
1.17 nM	CC(C)(C)OC(=O)NC1CCN(Cc2ccc(-c3[nH]c4cc(F)cc5c4c3CCNC5=O)cc2)CC1

Target: T2, Poly [ADP-ribose] polymerase 2
Experiment: Inhibition of human PARP2 using NAD+ as substrate incubated for 1 hr by ELISA
Conditions: not given

IC50	SMILES
61.9 nM	NC1CCN(Cc2cccc(-c3[nH]c4cc(F)cc5c4c3CCNC5=O)c2)CC1
5.71 nM	O=C1NCCc2c(-c3ccc(CN4CCN(c5ncccn5)CC4)cc3)[nH]c3cc(F)cc1c23
8.04 nM	CC(C)(C)OC(=O)NC1CCN(Cc2ccc(-c3[nH]c4cc(F)cc5c4c3CCNC5=O)cc2)CC1

Organism: Homo sapiens
Experiment: Selectivity index, ratio of IC50 for human PARP2 to IC50 for human PARP1
Conditions: not given

Ratio IC50	SMILES
4.8	O=C1NCCc2c(-c3ccc(CN4CCN(c5ncccn5)CC4)cc3)[nH]c3cc(F)cc1c23
6.9	CC(C)(C)OC(=O)NC1CCN(Cc2ccc(-c3[nH]c4cc(F)cc5c4c3CCNC5=O)cc2)CC1

System: MX1
Experiment: Antiproliferative activity against human BRCA mutant MX1 cells assessed as inhibition of cell growth incubated for 48 hrs by MTT assay
Type: functional, cell-based
Conditions: MX1, 48 h

SMILES	IC50
NC1CCN(Cc2cccc(-c3[nH]c4cc(F)cc5c4c3CCNC5=O)c2)CC1	9460 nM

System: MCF7
Experiment: Antiproliferative activity against human MCF7 cells assessed as inhibition of cell growth incubated for 48 hrs by MTT assay
Type: functional, cell-based
Conditions: MCF7, 48 h

IC50	SMILES
124000 nM	NC1CCN(Cc2cccc(-c3[nH]c4cc(F)cc5c4c3CCNC5=O)c2)CC1

System: A549
Experiment: Antiproliferative activity against human A549 cells assessed as inhibition of cell growth incubated for 48 hrs by MTT assay
Type: functional, cell-based
Conditions: A549, 48 h

IC50	SMILES
106000 nM	NC1CCN(Cc2cccc(-c3[nH]c4cc(F)cc5c4c3CCNC5=O)c2)CC1

System: A549
Experiment: […] human A549 cells assessed as reduction in PAR level measured after 48 hrs by Western blot analysis
Type: functional, cell-based
Conditions: dose 2.5-10 µM, DDE = dose-dependent effect

SMILES	Activity
NC1CCN(Cc2cccc(-c3[nH]c4cc(F)cc5c4c3CCNC5=O)c2)CC1	Dde

System: MDA-MB-436
Experiment: Antitumor activity against human BRCA1 mutant MDA-MB-436 cells xenografted athymic BALB/c mouse assessed as inhibition of tumor volume at 50 mg/kg/day, po administered for 18 days and measured twice weekly
Type: functional, organism-based
Conditions: time 18.0 day

SMILES	Activity
NC1CCN(Cc2cccc(-c3[nH]c4cc(F)cc5c4c3CCNC5=O)c2)CC1	Active

System: not listed separately
Experiment: Toxicity athymic BALB/c mouse xenografted with human BRCA1 mutant MDA-MB-436 cells assessed as change in body weight at 50 mg/kg/day, po administered for 18 days and measured twice weekly
Type: organism-based
Conditions: in vivo, 432 h, time 18 day

SMILES	Activity
NC1CCN(Cc2cccc(-c3[nH]c4cc(F)cc5c4c3CCNC5=O)c2)CC1	Non-Toxic

System: Mus musculus
Experiment: In vivo inhibition of PARP1 in athymic BALB/c mouse xenografted with human BRCA1 mutant MDA-MB-436 cells assessed as prevention of PAR formation 50 mg/kg/day, po measured after 48 hrs by Western blot analysis
Type: functional, organism-based
Conditions: not given

SMILES	inhibition
NC1CCN(Cc2cccc(-c3[nH]c4cc(F)cc5c4c3CCNC5=O)c2)CC1	Active

Reference: ChEMBL document CHEMBL5131383, “Structure-based design, synthesis, and evaluation of inhibitors with high selectivity for PARP-1 over PARP-2” (Eur J Med Chem, 2022)
